Experiments:
[1] = Tensile stress test of tablets; type: physicochemical
Procedure: Hardness testing was performed immediately after tableting using a Pharma Test hardness tester. Each compaction force was tested in triplicate. Tensile strength was calculated according to the Equation 1 where F is the load required to fracture the tablet, D the table diameter and H the tablet height: Tensile strength=2F/πDH Equation 1: […]

[2] = cited from earlier work
[3] = type: physicochemical; conditions: intrinsic dissolution of compacts, 37° C., relative to pure LAM
Procedure: These compacts were each coated with paraffin wax, leaving one surface exposed and secured to the bottom of the dissolution apparatus with excess paraffin wax. Intrinsic solubility was determined using a 900 ml well filled with 900 ml of degassed, deionised water (or 0.1 M HCl solution) on a Pharma Test USP type II system. The solution had been previously equilibrated at 37° C. and the paddle speed was set to 100 rpm after adding the samples. Aliquots of media were withdrawn at 5, 10, 15, 20 30 and 60 minutes (or 0.25, 0.5, 1, 3, 6, 12 and 24 hours), filtered through 0.45 μm PTFE filters and tested via a UV spectrometer in triplicate.
UV-Vis absorbance measurements were carried on a Cary 60 UV-Vis spectrometer using 1 ml quartz cuvettes.

[4] = type: physicochemical
Procedure: Stability testing: Accelerated stability testing was conducted by taking 100 mg of powdered sample and placing it into a humidity chamber under 75% relative humidity at 40° C. for 14 days. The samples were analysed before and after testing by PXRD, FT-IR, DSC and TGA.

Thermal analysis (TGA) = type: physicochemical; conditions: 10° C./min, nitrogen
Procedure: Thermal Analysis: Thermogravimetric analysis (TGA) was performed using a TA Instruments TGA-Q50 on at a constant rate of 10° C./min from 25° C. to 350° C. under a flux of nitrogen of 50 ml/min. Differential Scanning Calorimetry (DSC) was carried out using sealed aluminium pans on a TA instruments DSC-Q2000 differential scanning calorimeter. Temperature calibrations were made using indium as the standard. An empty pan, sealed in the same way as the sample, was used as a reference. All the thermograms were run at a heating/cooling rate of 10° C./min under a nitrogen purge at a rate of 50 ml/min.

[5] = type: physicochemical; remark: listed apart in the source
Procedure: The product was recovered by filtration and dried in air.
Powder X-ray diffraction (PXRD): X-ray powder diffraction (XRPD) patterns were collected in Bragg-Brentano geometry on a PANalytical Empyrean diffractometer equipped with a sealed tube (Cu Kα12, λ=1.5418 Å) an 1D X'Celerator detector between 4 and 40° 2θ.

Compound	tablet hardness / tensile strength ([1]; tablets obtained with a compaction weight lower than 400 kg)	half-life ([2]; in vivo)	oral bioavailability ([2]; orally)	intrinsic dissolution, faster than pure LAM [3]	tensile strength compared with LAM ([1]; across a range of compaction forces)	crystallinity after accelerated stability test (PXRD) [4]	product degradation after accelerated stability test (FT-IR and DSC) [4]	thermally stable up to (thermogravimetric analysis) (Thermal analysis (TGA))	stability as a slurry in water (PXRD) [5]
Nc1nnc(-c2cccc(Cl)c2Cl)c(N)n1 [LAM, lamotrigine]	too brittle to enable hardness testing	rather short half-life	90%						
lamotrigine:valproic acid (1:2) ionic cocrystal [LAMVAL]				2 ×	significantly greater tensile strength	remains crystalline	no sign of product degradation	around 100 °C	stable as a slurry in water

— patent US20220168312A1, “MULTICOMPONENT CRYSTAL FORMULATIONS” (UNIVERSITY OF LIMERICK, priority 2019, published 2022)
